Source: ChEMBL document CHEMBL1201862, “PubChem BioAssay data set” (2004)
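Step 1: Grow cells in 96-well plates. Step 2: Expose to compound for 48 hours at 5 concentrations. Step 3: Interpolate endpoints linearly; if unreached, use highest concentration. GI50 is the concentration that inhibits growth by half.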 The source made the active and inactive calls. No stated cut-off is given here; in the data, active = GI50 up to about 1.1 µM and inactive = higher.

Experiments:
Experiment in all cases: growth of human tumour cells (NCI), 48 h
[1] = test system: 786-0
[2] = test system: A498
[3] = test system: A549
[4] = test system: ACHN
[5] = test system: BT-549
[6] = test system: CAKI-1
[7] = test system: CCRF-CEM
[8] = test system: COLO 205
[9] = test system: DU-145
[10] = test system: EKVX
[11] = test system: HCC 2998
[12] = test system: HCT-116
[13] = test system: HCT-15
[14] = test system: HOP-62
[15] = test system: HOP-92
[16] = test system: HT-29
[17] = test system: Hs-578T
[18] = test system: IGROV-1
[19] = test system: K562
[20] = test system: KM12
[21] = test system: M14
[22] = test system: MCF7
[23] = test system: MDA-MB-231
[24] = test system: MDA-MB-435
[25] = test system: MOLT-4
[26] = test system: NCI-H226
[27] = test system: NCI-H23
[28] = test system: NCI-H522
[29] = test system: NCI/ADR-RES
[30] = test system: OVCAR-3
[31] = test system: OVCAR-4
[32] = test system: OVCAR-5
[33] = test system: OVCAR-8
[34] = test system: PC-3
[35] = test system: RPMI-8226
[36] = test system: RXF 393
[37] = test system: SF-268
[38] = test system: SF-295
[39] = test system: SF-539
[40] = test system: SK-MEL-28
[41] = test system: SK-MEL-2
[42] = test system: SK-MEL-5
[43] = test system: SK-OV-3
[44] = test system: SN12C
[45] = test system: SNB-19
[46] = test system: SNB-75
[47] = test system: SR
[48] = test system: SW-620
[49] = test system: T47D
[50] = test system: TK-10
[51] = test system: U-251
[52] = test system: UACC-257
[53] = test system: UACC-62
[54] = test system: UO-31
[55] = test system: HL-60
[56] = test system: LOX IMVI
[57] = test system: Malme-3M
[58] = test system: NCI-H460
[59] = test system: MDA-N

In the case of `Cc1cc2c3c(nc4ccccc42)C(=O)c2ccccc2-c3n1`, the GI50 [1] is reported as 25.5 µM (inactive), the GI50 [2] is reported as 16.9 µM (inactive) and the GI50 [3] is reported as 7.1 µM (inactive). The GI50 [4] was 12.2 µM (inactive), the GI50 [5] was 16.9 µM (inactive) and the GI50 [6] was 12.3 µM (inactive). The GI50 [7] was 5.16 µM (inactive), the GI50 [8] was 16.8 µM (inactive) and the GI50 [9] was 23.5 µM (inactive). For the same compound, the GI50 [10] was 29.4 µM (inactive), the GI50 [11] was 20.1 µM (inactive) and the GI50 [12] was 8.59 µM (inactive). For the same compound, the GI50 [13] was 1.35 µM, the GI50 [14] was 6.18 µM (inactive) and the GI50 [15] was 19.3 µM (inactive). The GI50 [16] was 21.7 µM (inactive), the GI50 [17] was 13.4 µM (inactive) and the GI50 [18] was 2.98 µM (inactive). The GI50 [19] was 0.839 µM (active), the GI50 [20] was 1.02 µM (active) and the GI50 [21] was 4.44 µM (inactive). The GI50 [22] was 10.5 µM (inactive), the GI50 [23] was 18 µM (inactive) and the GI50 [24] was 1.66 µM (inactive). The GI50 [25] was 3.34 µM (inactive), the GI50 [26] was 21 µM (inactive) and the GI50 [27] was 2.4 µM (inactive). The GI50 [28] was 1.68 µM (inactive), the GI50 [29] was 6.53 µM (inactive) and the GI50 [30] was 0.135 µM (active). For the same compound, the GI50 [31] was 25.4 µM (inactive), the GI50 [32] was 32 µM (inactive) and the GI50 [33] was 5.52 µM (inactive). The GI50 [34] was 0.851 µM (active), the GI50 [35] was 3.14 µM (inactive) and the GI50 [36] was 20.3 µM (inactive). The GI50 [37] was 30.6 µM (inactive), the GI50 [38] was 10.1 µM (inactive) and the GI50 [39] was 19.3 µM (inactive). The GI50 [40] was 14.6 µM (inactive), the GI50 [41] was 17.9 µM (inactive) and the GI50 [42] was 0.569 µM (active). The GI50 [43] was 14.8 µM (inactive), the GI50 [44] was 17 µM (inactive) and the GI50 [45] was 45.8 µM (inactive). The GI50 [46] was 4.37 µM (inactive), the GI50 [47] was 1.79 µM (inactive) and the GI50 [48] was 9.48 µM (inactive). For the same compound, the GI50 [49] was 12.7 µM (inactive), the GI50 [50] was 34.8 µM (inactive) and the GI50 [51] was 16.1 µM (inactive). For the same compound, the GI50 [52] was 22.8 µM (inactive), the GI50 [53] was 1.8 µM (inactive) and the GI50 [54] was 10.5 µM (inactive).
For `OCCCC(O)(c1ccccc1)c1ccccc1`, the GI50 [1] was > 100 µM (inactive), the GI50 [3] was > 100 µM (inactive) and the GI50 [4] was > 100 µM (inactive). For the same compound, the GI50 [5] was > 100 µM (inactive), the GI50 [7] was > 100 µM (inactive) and the GI50 [10] was > 100 µM (inactive). The GI50 [11] was > 100 µM (inactive), the GI50 [13] was over 100 µM and the GI50 [55] was > 100 µM (inactive). For the same compound, the GI50 [14] was > 100 µM (inactive), the GI50 [16] was > 100 µM (inactive) and the GI50 [17] was > 100 µM (inactive). The GI50 [18] was > 100 µM (inactive), the GI50 [19] was > 100 µM (inactive) and the GI50 [20] was > 100 µM (inactive). The GI50 [56] was > 100 µM (inactive), the GI50 [21] was > 100 µM (inactive) and the GI50 [22] was > 100 µM (inactive). For the same compound, the GI50 [24] was > 100 µM (inactive), the GI50 [25] was > 100 µM (inactive) and the GI50 [57] was > 100 µM (inactive). For the same compound, the GI50 [26] was > 100 µM (inactive), the GI50 [27] was > 100 µM (inactive) and the GI50 [58] was > 100 µM (inactive). For the same compound, the GI50 [28] was > 100 µM (inactive), the GI50 [29] was > 100 µM (inactive) and the GI50 [30] was > 100 µM (inactive). For the same compound, the GI50 [31] was > 100 µM (inactive), the GI50 [32] was > 100 µM (inactive) and the GI50 [33] was > 100 µM (inactive). For the same compound, the GI50 [34] was > 100 µM (inactive), the GI50 [35] was > 100 µM (inactive) and the GI50 [36] was > 100 µM (inactive). The GI50 [37] was > 100 µM (inactive), the GI50 [38] was > 100 µM (inactive) and the GI50 [39] was > 100 µM (inactive). The GI50 [40] was > 100 µM (inactive), the GI50 [41] was > 100 µM (inactive) and the GI50 [42] was > 100 µM (inactive). The GI50 [43] was > 100 µM (inactive), the GI50 [44] was > 100 µM (inactive) and the GI50 [45] was > 100 µM (inactive). The GI50 [46] was > 100 µM (inactive), the GI50 [47] was > 100 µM (inactive) and the GI50 [48] was > 100 µM (inactive). For the same compound, the GI50 [50] was > 100 µM (inactive), the GI50 [51] was > 100 µM (inactive) and the GI50 [52] was > 100 µM (inactive). For the same compound, the GI50 [53] was > 100 µM (inactive) and the GI50 [54] was > 100 µM (inactive).
For `COc1cc(/C=C2\C(=O)N(c3cccc(NC(C)=O)c3)C(c3ccccc3)S2(=O)=O)cc(OC)c1OC` (stereo unspecified), the GI50 [1] was 88.5 µM (inactive), the GI50 [2] was > 100 µM (inactive) and the GI50 [3] was > 100 µM (inactive). The GI50 [4] was > 100 µM (inactive), the GI50 [5] was 67.3 µM (inactive) and the GI50 [6] was > 100 µM (inactive). For the same compound, the GI50 [7] was 30.3 µM (inactive), the GI50 [8] was 63.1 µM (inactive) and the GI50 [9] was > 100 µM (inactive). The GI50 [10] was 74.1 µM (inactive), the GI50 [11] was > 100 µM (inactive) and the GI50 [12] was 37.8 µM (inactive). The GI50 [13] was 71.4 µM, the GI50 [55] was 17.5 µM (inactive) and the GI50 [14] was > 100 µM (inactive). For the same compound, the GI50 [15] was > 100 µM (inactive), the GI50 [16] was 55.2 µM (inactive) and the GI50 [18] was > 100 µM (inactive). The GI50 [19] was 31.3 µM (inactive), the GI50 [20] was 49.8 µM (inactive) and the GI50 [56] was 54.2 µM (inactive). For the same compound, the GI50 [21] was > 100 µM (inactive), the GI50 [22] was 31 µM (inactive) and the GI50 [23] was > 100 µM (inactive). For the same compound, the GI50 [24] was 47.9 µM (inactive), the GI50 [59] was 40.4 µM (inactive) and the GI50 [25] was 19.8 µM (inactive). The GI50 [57] was 93.5 µM (inactive), the GI50 [26] was 67.6 µM (inactive) and the GI50 [27] was 79.4 µM (inactive). The GI50 [58] was 67.5 µM (inactive), the GI50 [28] was 28.4 µM (inactive) and the GI50 [29] was 94.6 µM (inactive). For the same compound, the GI50 [30] was 56 µM (inactive), the GI50 [31] was 70.5 µM (inactive) and the GI50 [32] was > 100 µM (inactive). For the same compound, the GI50 [33] was 48.2 µM (inactive), the GI50 [34] was 42.6 µM (inactive) and the GI50 [35] was 40.7 µM (inactive). For the same compound, the GI50 [36] was > 100 µM (inactive), the GI50 [38] was 50.9 µM (inactive) and the GI50 [39] was 48.3 µM (inactive). For the same compound, the GI50 [40] was 91.2 µM (inactive), the GI50 [41] was > 100 µM (inactive) and the GI50 [42] was 39.1 µM (inactive). The GI50 [43] was > 100 µM (inactive), the GI50 [44] was 67.5 µM (inactive) and the GI50 [45] was > 100 µM (inactive). The GI50 [46] was 62.7 µM (inactive), the GI50 [47] was 24.9 µM (inactive) and the GI50 [48] was 56.2 µM (inactive). The GI50 [49] was 34.7 µM (inactive), the GI50 [50] was > 100 µM (inactive) and the GI50 [51] was 59.8 µM (inactive). For the same compound, the GI50 [52] was > 100 µM (inactive), the GI50 [53] was 80.9 µM (inactive) and the GI50 [54] was 50.5 µM (inactive).
